Biological target: T1, Corticotropin-releasing factor receptor 1 (Homo sapiens, UniProt P34998)
T1 sequence (P34998 whole entry): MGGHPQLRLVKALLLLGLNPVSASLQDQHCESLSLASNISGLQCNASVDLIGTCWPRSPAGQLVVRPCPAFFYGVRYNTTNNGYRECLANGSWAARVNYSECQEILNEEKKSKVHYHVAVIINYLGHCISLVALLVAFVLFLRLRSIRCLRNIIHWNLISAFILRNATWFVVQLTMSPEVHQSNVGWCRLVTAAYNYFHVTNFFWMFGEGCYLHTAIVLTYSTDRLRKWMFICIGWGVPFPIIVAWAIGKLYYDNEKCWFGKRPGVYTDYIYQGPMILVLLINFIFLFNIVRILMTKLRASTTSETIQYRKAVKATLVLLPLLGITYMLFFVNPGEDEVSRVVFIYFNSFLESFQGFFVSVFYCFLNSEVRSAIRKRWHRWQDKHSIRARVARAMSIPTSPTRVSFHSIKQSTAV
Experiment: Binding affinity against human Corticotropin releasing factor receptor 1 expressed in HEK 293E cells using [125I]TYR-oCRH
Assay type: cell-based, HEK293

| SMILES | Ki [nM] |
| --- | --- |
| CCCN(CC1CC1)c1nc(C)nc2c1sc(=S)n2-c1c(C)cc(C)cc1C | 13.1 |
| COCCN(CCOC)c1nc(C)nc2c1sc(=O)n2-c1c(C)cc(C)cc1C | 5 |
| COCCN(CCOC)c1nc(C)nc2c1sc(=O)n2-c1ccc(C(C)C)cc1Br | 14.5 |
| CCN(CC)c1nc(C)nc2c1sc(=O)n2-c1c(C)cc(C)cc1C | 14.5 |
| CCN(CC)c1nc(C)nc2c1sc(=S)n2-c1ccc(C(C)C)cc1Br | 4.1 |
| CCC(C)N(c1nc(C)nc2c1sc(=S)n2-c1ccc(C(C)C)cc1Br)C(C)CC (stereo not given) | 45.4 |
| CCCCN(CC)c1nc(C)nc2c1sc(=S)n2-c1ccc(C(C)C)cc1Br | 23.9 |
| CCCN(CC1CC1)c1nc(C)nc2c1sc(=S)n2-c1ccc(C(C)C)cc1Br | 12.6 |
| CCCN(CC1CC1)c1nc(C)nc2c1sc(=O)n2-c1c(C)cc(C)cc1C | 16.2 |
| CCCN(CC1CC1)c1nc(C)nc2c1sc(=O)n2-c1ccc(C(C)C)cc1Br | 4.1 |
| CCN(CC)c1nc(C)nc2c1sc(=O)n2-c1ccc(C(C)C)cc1Br | 9.4 |
| Cc1nc(N2CCOCC2)c2sc(=S)n(-c3ccc(C(C)C)cc3Br)c2n1 | 122 |
| CCN(CC)c1nc(C)nc2c1sc(=S)n2-c1c(C)cc(C)cc1C | 9.2 |
| COCCN(CCOC)c1nc(C)nc2c1sc(=S)n2-c1c(C)cc(C)cc1C | 8.6 |
| COCCN(CCOC)c1nc(C)nc2c1sc(=S)n2-c1ccc(C(C)C)cc1Br | 6.6 |
